Experimental data published in patent US20110245164A1 (INDIANA UNIVERSITY RESEARCH AND TECHNOLOGY, published 2011).
Non-standard residues stand in square brackets, D forms with d. Residues, ends and D or L forms follow the SMILES beside them. Groups on a side chain read outwards from the residue. *: point of attachment. Phe(4-NH2) = Nc1ccc(C[C@H](N)C(=O)O)cc1; X1 = CCCCCCN(CC(=O)*)C(=O)[C@H](N)CCCCN; Aib = CC(C)(N)C(=O)O; Sar = CNCC(=O)O

Assay: Dipeptide half life on IGF1 dipeptide extended (p-NH2-F)A19 amide derivatives in PBS (HPLC)
Assay type: physicochemical
Description: IGF-1 peptides was measured to determine the impact of the peptide sequence or heteroduplex on the dipeptide cleavage.
Accordingly, the IGF1A chain alone was determined to be a good model for the study of pro-drug half life on IGF1 B:A (Y^B16L^B17) derivative peptides. […] For simplicity, prodrug half lives were determined using only the IGF1 A chain in the absence of the B chain. The half lives of each propeptide was determined as described in Example 5.
The IGF^B16B17 derivative peptide prodrugs were incubated in PBS, pH 7.4 at 37° C. and at predetermined time intervals an aliquot was taken and further degradation was quenched with 0.1% TFA and the aliquot was subjected to analytical HPLC analysis. Peaks a and b, representing the prodrug and active forms of the IGF^B16B17 derivative peptide were identified with LC-MS and quantified by integration of peak area an HPLC. FIGS. 9A-9C show the output of an HPLC analysis of the degradation of the IGF^B16B17 derivativepeptide prodrug: IGF1A(Ala)^6,7,11,20(Aib-Pro-pNH-F)^19. Aliquots were taken at 20 minutes (FIG. 9A), 81 minutes (FIG. 9B) and 120 minutes (FIG. 9C) after beginning the incubation of the prodrug in PBS.

| Half Life (buffer) [h] | Half Life, PBS (buffer) [h] | degradation of prodrug to active form (HPLC), in words (pH 7.4) | half-life (buffer, pH 7.4) [h] | SMILES |
| --- | --- | --- | --- | --- |
| 21.8 | 21.8 |  |  | CC[C@H](C)[C@H](NC(=O)CN)C(=O)N[C@H](C(=O)N[C@@H](CC(=O)O)C(=O)N[C@@H](CCC(=O)O)C(=O)N[C@@H](C)C(=O)N[C@@H](C)C(=O)N[C@@H](Cc1ccccc1)C(=O)N[C@@H](CCCNC(=N)N)C(=O)N[C@@H](CO)C(=O)N[C@@H](C)C(=O)N[C@@H](CC(=O)O)C(=O)N[C@@H](CC(C)C)C(=O)N[C@@H](CCCNC(=N)N)C(=O)N[C@@H](CCCNC(=N)N)C(=O)N[C@@H](CC(C)C)C(=O)N[C@@H](CCC(=O)O)C(=O)N[C@@H](CCSC)C(=O)N[C@@H](Cc1ccc(NC(=O)CN(C)C(=O)[C@@H](N)CCCCN)cc1)C(=O)N[C@@H](C)C(=O)N[C@@H](C)C(N)=O)C(C)C [K Sar] (H-GIVDEAAFRSADLRRLEM[Phe(4-NH2)]([Sar-Lys])AA-NH2) |
| 2.2 | 2.2 | spontaneous, non-enzymatic conversion |  | CC[C@H](C)[C@H](NC(=O)CN)C(=O)N[C@H](C(=O)N[C@@H](CC(=O)O)C(=O)N[C@@H](CCC(=O)O)C(=O)N[C@@H](C)C(=O)N[C@@H](C)C(=O)N[C@@H](Cc1ccccc1)C(=O)N[C@@H](CCCNC(=N)N)C(=O)N[C@@H](CO)C(=O)N[C@@H](C)C(=O)N[C@@H](CC(=O)O)C(=O)N[C@@H](CC(C)C)C(=O)N[C@@H](CCCNC(=N)N)C(=O)N[C@@H](CCCNC(=N)N)C(=O)N[C@@H](CC(C)C)C(=O)N[C@@H](CCC(=O)O)C(=O)N[C@@H](CCSC)C(=O)N[C@@H](Cc1ccc(NC(=O)[C@@H]2CCCN2C(=O)C(C)(C)N)cc1)C(=O)N[C@@H](C)C(=O)N[C@@H](C)C(N)=O)C(C)C [AiB Pro] (H-GIVDEAAFRSADLRRLEM[Phe(4-NH2)]([Pro-Aib])AA-NH2) |
| 1.9 | 2.1 |  |  | CC[C@H](C)[C@H](NC(=O)CN)C(=O)N[C@H](C(=O)N[C@@H](CC(=O)O)C(=O)N[C@@H](CCC(=O)O)C(=O)N[C@@H](C)C(=O)N[C@@H](C)C(=O)N[C@@H](Cc1ccccc1)C(=O)N[C@@H](CCCNC(=N)N)C(=O)N[C@@H](CO)C(=O)N[C@@H](C)C(=O)N[C@@H](CC(=O)O)C(=O)N[C@@H](CC(C)C)C(=O)N[C@@H](CCCNC(=N)N)C(=O)N[C@@H](CCCNC(=N)N)C(=O)N[C@@H](CC(C)C)C(=O)N[C@@H](CCC(=O)O)C(=O)N[C@@H](CCSC)C(=O)N[C@@H](Cc1ccc(NC(=O)[C@H]2CCCN2C(=O)C(C)(C)N)cc1)C(=O)N[C@@H](C)C(=O)N[C@@H](C)C(N)=O)C(C)C [AiB dPro] (H-GIVDEAAFRSADLRRLEM[Phe(4-NH2)]([dP-Aib])AA-NH2) |
|  |  |  | 10.6 | CCCCCCN(CC(=O)Nc1ccc(C[C@H](NC(=O)[C@H](CCSC)NC(=O)[C@H](CCC(=O)O)NC(=O)[C@H](CC(C)C)NC(=O)[C@H](CCCNC(=N)N)NC(=O)[C@H](CCCNC(=N)N)NC(=O)[C@H](CC(C)C)NC(=O)[C@H](CC(=O)O)NC(=O)[C@H](C)NC(=O)[C@H](CO)NC(=O)[C@H](CCCNC(=N)N)NC(=O)[C@H](Cc2ccccc2)NC(=O)[C@H](C)NC(=O)[C@H](C)NC(=O)[C@H](CCC(=O)O)NC(=O)[C@H](CC(=O)O)NC(=O)[C@@H](NC(=O)[C@@H](NC(=O)CN)[C@@H](C)CC)C(C)C)C(=O)N[C@@H](C)C(=O)N[C@@H](C)C(N)=O)cc1)C(=O)[C@H](N)CCCCN [dK N-hexyl Gly] (H-GIVDEAAFRSADLRRLEM[Phe(4-NH2)](X1)AA-NH2; N-terminus assumed) |
